# Assay results published in US5807889A, “Aminomethylindans, -benzofuranes and -benzothiophenes” (H. Lundbeck A/S, priority 1992, dated 1998).
# Biological target: T1, 5-HT1A receptors (Rattus norvegicus, UniProt P19327)
# T1 sequence (P19327 1-422): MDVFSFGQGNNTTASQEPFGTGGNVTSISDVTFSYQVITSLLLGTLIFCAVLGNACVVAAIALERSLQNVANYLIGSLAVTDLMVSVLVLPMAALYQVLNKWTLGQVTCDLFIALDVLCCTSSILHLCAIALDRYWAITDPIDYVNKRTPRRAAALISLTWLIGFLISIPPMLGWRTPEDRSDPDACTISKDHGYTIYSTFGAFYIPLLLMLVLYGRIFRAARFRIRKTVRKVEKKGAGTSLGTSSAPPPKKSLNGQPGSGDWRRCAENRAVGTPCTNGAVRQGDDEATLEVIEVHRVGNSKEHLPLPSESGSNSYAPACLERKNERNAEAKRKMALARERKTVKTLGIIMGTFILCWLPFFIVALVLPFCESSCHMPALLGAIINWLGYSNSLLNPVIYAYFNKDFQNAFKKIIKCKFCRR
# Assay: Inhibition of 3H-8-OH-DPAT binding to serotonin 5-HT1A receptors in rat brain in vitro
# Set-up: 5-HT1A receptors in membranes from rat brain minus cerebellum; from tissue; host or cells: brain minus cerebellum of male Wistar (Mol:Wist) rats, crude membranes; species or system rat (male Wistar)
# Details: 3H 8-OH DPAT binding IC50, 1 nM 3H-8-OH-DPAT, rat brain minus cerebellum membranes, 37° C., 15 min
# Procedure: Male Wistar (Mol:Wist) rats (125-250 g) are sacrificed and the brain is dissected and weighed. The brain tissue minus cerebellum is homogenized (Ultra Turrax, 20 sec) in 10 ml of ice cold 50 nM Tris buffer pH 8.0 (at 25° C.) containing 120 mM NaCl, 4 mM CaCl2 and 4 mM MgCl2. The homogenate is centrifuged at 20,000 g for 10 min at 4° C. The pellet is homogenized in 10 ml of buffer and incubated at 37° C. for 10 min. The homogenate is centrifuged as above and the pellet is homogenized in 100 vol (w/v) ice cold buffer containing 10 μM of pargyline.
# Incubation tubes kept on ice in triplicate receive 100 μl of drug solution in water (or water for total binding) and 1000 μl of tissue suspension (final tissue content corresponds to 10 mg original tissue). […] After incubation for 15 min the samples are filtered under vacuum (0-50 mBar) through Whatman GF/F filters (25 mm). The tubes are rinsed with 5 ml ice cold 0.9% NaCl which is then poured on the filters. Thereafter, the filters are washed with 2×5 ml 0.9% NaCl. The filters are placed in counting vials and 4 ml of appropriate scintillation fluid (e.g. Picofluor™ 15) are added. After shaking for 1 h and storage 2 h in the dark the content of radioactivity is determined by liquid scintillation counting. Specific binding is obtained by subtracting the nonspecific binding in the presence of 10 μM of 5-HT.
# For determination of the inhibition of binding five concentrations of drugs covering 3 decades are used.
# The IC50 -value is determined as the concentration, at which the binding is 50% of the total binding in control samples minus the nonspecific binding in the presence of 10 μM of 5-HT.
row,Compound,IC50 [nM]
1,"CC(=O)Nc1ccc2c(c1)C(CN1CCCCC1)CC2 (single isomer, unassigned; (+)) [Compound 8f, (+)-6-acetylamino-1-(1-piperidinomethyl)indan]",15
2,"CCCN(CCC)CC1CCc2ccc(NC=O)cc21 (single isomer, unassigned; (+)) [Compound 10b, (+)-1-(N,N-dipropylaminomethyl)-6-formylaminoindan]",4.2
3,"CCCN(CCC)CC1CCc2ccc(NC(=O)N(C)C)cc21 (single isomer, unassigned; (+)) [Compound 10d, (+)-6-(3,3-dimethyl-1-ureido)-1-(N,N-dipropylaminomethyl)indan]",22
4,"CCCN(CCC)CC1CCc2cc(Cl)c(NC(C)=O)cc21 (single isomer, unassigned; (+)) [Compound 11c, (+)-6-Acetylamino-5-chloro-1-(N,N-dipropylaminomethyl)indan]",14
5,"CCCN(CCC)CC1CCc2ccc(NC(C)=O)cc21 (single isomer, unassigned; (-)) [Compound 8a, (-)-6-Acetylamino-1-(N,N-dipropylaminomethyl)indan]",0.64
6,"CCCN(CCC)CC1CCc2ccc(NC=O)cc21 (single isomer, unassigned; (-)) [Compound 10a, (-)-1-(N,N-dipropylaminomethyl)-6-formylaminoindan]",1
7,"CCCN(CCC)CC1CCc2ccc(NC(=O)N(C)C)cc21 (single isomer, unassigned; (-)) [Compound 10c, (-)-6-(3,3-dimethyl-1-ureido)-1-(N, N-dipropylaminomethyl)indan]",8.1
8,"CC(=O)Nc1ccc2c(c1)C(CN1CCCCC1)CS2 (stereo not shown) [Compound 2i, 5-acetylamino-3-(1-piperidinomethyl)-2,3-dihydrobenzothiophene]",6.3
9,"CCCN(CCC)CC1CCc2ccc(NC(N)=O)cc21 (stereo not shown) [Compound 3a, 1-(N,N-dipropylaminomethyl)-6-ureido-indan]",0.56
10,"CCCN(CCC)CC1CCc2ccc(NC(=O)NC)cc21 (stereo not shown) [Compound 4b, 1-(N,N-dipropylaminomethyl)-6-(3-methyl-1-ureido)indan]",6.6
11,"CCCCCCCCCNC(=O)Nc1ccc2c(c1)C(CN(CCC)CCC)CC2 (stereo not shown) [Compound 4d, 1-(N,N-dipropylaminomethyl)-6-(3-nonyl-1-ureido)indan]",170
12,"CCCN(CCC)CC1CCc2ccc(NC(=O)NC3CCCC3)cc21 (stereo not shown) [Compound 4e, 6-(3-cyclopentyl-1-ureido)-1-(N,N-dipropylaminomethyl)indan]",170
13,"CCCN(CCC)CC1CCc2ccc(NCc3ccc(F)cc3)cc21 (stereo not shown) [Compound 6a, 1-(N,N-dipropylaminomethyl)-6-(4-fluorobenzylamino)indan]",20
14,"CCCN(CCC)CC1CCc2cc(Br)c(NC(C)=O)cc21 (stereo not shown) [Compound 11d, 6-Acetylamino-5-bromo-1-(N,N-dipropylaminomethyl)indan]",120
15,"CC(=O)Nc1ccc2c(c1)C(CN(C)CCCCN1CCN(C3CCCCC3)C1=O)CC2 (stereo not shown) [Compound 13f, 6-Acetylamino-1-[N-[4-(3-cyclohexyl-2-imidazolidinon-1-yl)-1-butyl]-N-methylaminomethyl]indan]",5.1
16,"CC(=O)Nc1ccc2c(c1)C(CN(C)CCCN1CCN(c3ccccc3)C1=O)CC2 (stereo not shown) [Compound 13g, 6-Acetylamino-1-[N-methyl-N-[3-(3-phenyl-2-imidazolidinon-1-yl)-1-propyl]aminomethyl]indan]",1
17,"CC(=O)Nc1ccc2c(c1)C(CN(C)CCCCN1CCN(c3ccc(F)cc3)C1=O)CC2 (stereo not shown) [Compound 13h, 6-Acetylamino-1-[N-[4-[3-(4-fluorophenyl)-2-imidazolidinon-1-yl]-1-butyl]-N-methylaminomethyl]indan]",4.8
18,"CC(=O)Nc1ccc2c(c1)C(CN(C)CCCN1CCN(C3CCCCC3)C1=O)CC2 (stereo not shown) [Compound 13i, 6-Acetylamino-1-[N-[3-(3-cyclohexyl-2-imidazolidinon-1-yl)-1-propyl]-N-methylaminomethyl]indan]",2.2
19,"CC(=O)Nc1ccc2c(c1)C(CN(C)CCCCN1CCNC1=O)CC2 (stereo not shown) [Compound 13k, 6-Acetylamino-1-[N-[4-(2-imidazolidinon-1-yl)-1-butyl]-N-methylaminomethyl]indan]",790

# Other lines, results leading:
row,IC50 [nM],Compound
1,63,"CCCN(CCC)CC1CCc2ccc(NC(=O)Nc3ccc(F)cc3)cc21 (single isomer, unassigned; (+)) [Compound 10f, (+)-6-[3-(4-fluorophenyl)-1-ureido]-1-(N,N-dipropylaminomethyl)indan]"
2,220,"CN(C)CC1CCc2ccc(NC=O)cc21 (single isomer, unassigned; (+)) [Compound 10h, (+)-1-(N,N-dimethylaminomethyl)-6-formylaminoindan]"
3,6.7,"CC(=O)Nc1ccc2c(c1)C(CN1CCCCC1)CC2 (single isomer, unassigned; (-)) [Compound 8e, (-)-6-acetylamino-1-(1-piperidinomethyl)indan]"
4,160,"CCCN(CCC)CC1CCc2ccc(NC(=O)Nc3ccc(F)cc3)cc21 (single isomer, unassigned; (-)) [Compound 10e, (-)-6-[3-(4-fluorophenyl)-1-ureido]-1-(N,N-dipropylaminomethyl)indan]"
5,48,"CN(C)CC1CCc2ccc(NC=O)cc21 (single isomer, unassigned; (-)) [Compound 10g, (-)-1-(N,N-dimethylaminomethyl)-6-formylaminoindan]"
6,19,"O=CNc1ccc2c(c1)C(CN1CCCC1)CC2 (stereo not shown) [Compound 1d, 6-Formylamino-1-(1-pyrrolidinomethyl)indan]"
7,340,"CCCN(CCC)CC1CCc2ccc(NC(C)=O)c(Cl)c21 (stereo not shown) [Compound 2f, 6-Acetylamino-7-chloro-1-(N,N-dipropylaminomethyl)indan]"
8,2000,"CCCN(CCC)CC1CCc2ccc(NS(C)(=O)=O)c(Cl)c21 (stereo not shown) [Compound 2h, 7-chloro-1-(N,N-dipropylaminomethyl)-6-(methylsulphonylamino)indan]"
9,80,"CCCN(CCC)CC1CCc2ccc(NC(=O)Nc3ccccc3)cc21 (stereo not shown) [Compound 4a, 1-(N,N-dipropylaminomethyl)-6-(3-phenyl-1-ureido)indan]"
10,6.5,"CC(=O)Nc1ccc2c(c1)C(CN1CCCCC1)CC2 (stereo not shown) [Compound 5c, 6-acetylamino-1-(1-piperidinomethyl)indan]"
11,25,"CNCC1CCc2ccc(NC(C)=O)cc21 (stereo not shown) [Compound 12a, 6-Acetylamino-1-(N-methylaminomethyl)indan]"
12,27,"CC(=O)Nc1ccc2c(c1)C(CN(C)CCN1CCN(c3ccc(F)cc3)C1=O)CC2 (stereo not shown) [Compound 13e, 6-Acetylamino-1-[N-[2-[3-(4-fluorophenyl)-2-imidazolidinon-1-yl]ethyl]-N-methyl-aminomethyl]indan]"
13,3.2,"CC(=O)Nc1ccc2c(c1)C(CN(C)CCCCCCN1CCN(C3CCCC3)C1=O)CC2 (stereo not shown) [Compound 13j, 6-Acetylamino-1-[N-[6-(3-cyclopentyl-2-imidazolidinon-1-yl)-1-hexyl]-N-methylaminomethyl]indan]"

# Same assay, conditions: read-out: 3H 8-OH DPAT binding IC50; 1 nM 3H-8-OH-DPAT, rat brain minus cerebellum membranes, 37° C., 15 min
row,IC50 [nM],Compound
1,60,"3-[N-(2-phenylethyl)-N-propylaminomethyl]-5-formylaminomethyl-2,3-dihydrobenzothiophene [Compound 5b]"
2,0.64,"CCCN(CCC)CC1CCc2ccc(NC(C)=O)cc21 (single isomer, unassigned; (+)) [Compound 8b, (+)-6-Acetylamino-1-(N,N-dipropylaminomethyl)indan]"
